From article PMC9569640, “Structural Insights into the Binding Propensity of Human SHIP2 SH2 to Oncogenic CagA Isoforms from Helicobacter pylori” (International Journal of Molecular Sciences, 2022)
Substitutions are numbered along the chain they refer to. Like-named read-outs stand apart in the source and are kept apart here. Square brackets hold non-standard residues; d marks the D form. Peptide text beside a SMILES is read from it. pY = N[C@@H](Cc1ccc(OP(=O)(O)O)cc1)C(=O)O

What was measured:
SHIP2-SH2 (wild type) [1] = biological target: T1, SHIP2-SH2 (wild type) (Homo sapiens, UniProt O15357); assay: Fluorescence polarization binding of FAM-labeled phosphopeptides to wild-type SHIP2-SH2; settings: FP assay, N-terminally FAM-labeled phosphopeptide 100 nM, 20 mM Tris, 100 mM NaCl, 10 mM DTT, 0.02% NaN3, pH 7.5, each reaction repeated three times, averaged, ± standard error of curve fitting, read-out: dissociation constant (KD) for wild-type SHIP2-SH2
T1 construct: The SHIP2 SH2 domain (hereafter represented by SHIP2-SH2); made in house
T1 sequence (O15357 21-117 limits assumed): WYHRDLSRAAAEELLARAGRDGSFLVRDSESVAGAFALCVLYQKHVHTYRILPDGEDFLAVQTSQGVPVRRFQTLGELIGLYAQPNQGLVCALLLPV
Protocol: (§1) Expression and purification of wild-type SHIP2-SH2 and its mutants including R28A, S49A, E50A, S51A, R70A, S84A and Q107A were carried out using the previously described method, and circular dichroism (CD) spectra were collected to confirm no obvious secondary structure change of the mutants. The purified proteins were concentrated to a final concentration of 0.2 mM for NMR experiments in the NMR buffer containing 90% H2O/10% D2O (v/v), 20 mM Tris, 100 mM NaCl, 10 mM DTT and 0.02% NaN3 at pH 7.5. Peptides derived from the four types of EPIYA motifs were synthesized by GL Biochem Ltd. (Shanghai, China). Tyr-phosphorylated peptides included: 8-mer (E-P-I-pY-A-K-V-N) and 13-mer (E-N-E-P-I-pY-A-K-V-N-K-K-K) EPIYA-A; 8-mer (E-P-I-pY-A-Q-V-A) and 13-mer (P-E-E-P-I-pY-A-Q-V-A-K-K-V) EPIYA-B; and 8-mer EPIYA-CD (E-P-I-pY-A-T-I-D), 13-mer EPIYA-C (S-P-E-P-I-pY-A-T-I-D-D-L-G) and 13-mer EPIYA-D (S-P-E-P-I-pY-A-T-I-D-F-D-E). The purities of the peptides were determined to be above 98% by high performance liquid chromatography (HPLC) and the molecular weights were confirmed by electrospray ionization mass spectrometry (ESI-MS).
(§2) The used phosphopeptides for different versions of CagA EPIYA A/B/C/D motifs were labeled with FAM at the N-terminal end and dissolved in a buffer containing 20 mM Tris, 100 mM NaCl, 10 mM DTT and 0.02% NaN3, at pH 7.5. The peptide concentration was kept at 100 nM, while wild-type SHIP2-SH2 and its mutants were serially diluted with the concentrations ranging from micromolar to nanomolar, and then mixed with the peptide, respectively. FP values of FAM-labeled peptides bound by SHIP2-SH2 were measured using a SpectraMax i3x multi-mode plate reader (Molecular Devices) by recording the excitation at 485 nm and emission at 528 nm. Each binding reaction was repeated three times, and the polarization values were averaged (given in units of mP). The averaged polarization value of each titration point was subtracted from that of the free peptide to obtain the final value. The dissociation constants (KD) were calculated using the final polarization value of each titration point as previously described.

SHIP2-SH2 R28A = biological target: T2, SHIP2-SH2 R28A (Homo sapiens, UniProt O15357, R28A); assay: Fluorescence polarization binding, SHIP2-SH2 mutant R28A; settings: FP assay; FAM-labeled 13-mer phosphopeptide 100 nM; pH 7.5; n = 3 averaged; ± standard error of fitting; SEM; read-out: dissociation constant (KD) for SHIP2-SH2 R28A
T2 construct: The SHIP2 SH2 domain (hereafter represented by SHIP2-SH2); made in house
T2 sequence (O15357 21-117 R28A limits assumed): T1 sequence (O15357 21-117 limits assumed) with R8A
Protocol: as §1, §2

SHIP2-SH2 S49A = biological target: T3, SHIP2-SH2 S49A (Homo sapiens, UniProt O15357, S49A); assay: Fluorescence polarization binding, SHIP2-SH2 mutant S49A; settings: FP assay; FAM-labeled 13-mer phosphopeptide 100 nM; pH 7.5; n = 3 averaged; ± standard error of fitting; SEM; read-out: dissociation constant (KD) for SHIP2-SH2 S49A
T3 construct: The SHIP2 SH2 domain (hereafter represented by SHIP2-SH2); made in house
T3 sequence (O15357 21-117 S49A limits assumed): T1 sequence (O15357 21-117 limits assumed) with S29A
Protocol: as §1, §2

SHIP2-SH2 E50A = biological target: T4, SHIP2-SH2 E50A (Homo sapiens, UniProt O15357, E50A); assay: Fluorescence polarization binding, SHIP2-SH2 mutant E50A; settings: FP assay; FAM-labeled 13-mer phosphopeptide 100 nM; pH 7.5; n = 3 averaged; ± standard error of fitting; SEM; read-out: dissociation constant (KD) for SHIP2-SH2 E50A
T4 construct: The SHIP2 SH2 domain (hereafter represented by SHIP2-SH2); made in house
T4 sequence (O15357 21-117 E50A limits assumed): T1 sequence (O15357 21-117 limits assumed) with E30A
Protocol: as §1, §2

SHIP2-SH2 S51A = biological target: T5, SHIP2-SH2 S51A (Homo sapiens, UniProt O15357, S51A); assay: Fluorescence polarization binding, SHIP2-SH2 mutant S51A; settings: FP assay; FAM-labeled 13-mer phosphopeptide 100 nM; pH 7.5; n = 3 averaged; ± standard error of fitting; SEM; read-out: dissociation constant (KD) for SHIP2-SH2 S51A
T5 construct: The SHIP2 SH2 domain (hereafter represented by SHIP2-SH2); made in house
T5 sequence (O15357 21-117 S51A limits assumed): T1 sequence (O15357 21-117 limits assumed) with S31A
Protocol: as §1, §2

SHIP2-SH2 R70A = biological target: T6, SHIP2-SH2 R70A (Homo sapiens, UniProt O15357, R70A); assay: Fluorescence polarization binding, SHIP2-SH2 mutant R70A; settings: FP assay; FAM-labeled 13-mer phosphopeptide 100 nM; pH 7.5; n = 3 averaged; ± standard error of fitting; SEM; read-out: dissociation constant (KD) for SHIP2-SH2 R70A
T6 construct: The SHIP2 SH2 domain (hereafter represented by SHIP2-SH2); made in house
T6 sequence (O15357 21-117 R70A limits assumed): T1 sequence (O15357 21-117 limits assumed) with R50A
Protocol: as §1, §2

SHIP2-SH2 S84A = biological target: T7, SHIP2-SH2 S84A (Homo sapiens, UniProt O15357, S84A); assay: Fluorescence polarization binding, SHIP2-SH2 mutant S84A; settings: FP assay; FAM-labeled 13-mer phosphopeptide 100 nM; pH 7.5; n = 3 averaged; ± standard error of fitting; SEM; read-out: dissociation constant (KD) for SHIP2-SH2 S84A
T7 construct: The SHIP2 SH2 domain (hereafter represented by SHIP2-SH2); made in house
T7 sequence (O15357 21-117 S84A limits assumed): T1 sequence (O15357 21-117 limits assumed) with S64A
Protocol: as §1, §2

SHIP2-SH2 Q107A = biological target: T8, SHIP2-SH2 Q107A (Homo sapiens, UniProt O15357, Q107A); assay: Fluorescence polarization binding, SHIP2-SH2 mutant Q107A; settings: FP assay; FAM-labeled 13-mer phosphopeptide 100 nM; pH 7.5; n = 3 averaged; ± standard error of fitting; SEM; read-out: dissociation constant (KD) for SHIP2-SH2 Q107A
T8 construct: The SHIP2 SH2 domain (hereafter represented by SHIP2-SH2); made in house
T8 sequence (O15357 21-117 Q107A limits assumed): T1 sequence (O15357 21-117 limits assumed) with Q87A
Protocol: as §1, §2

SHIP2-SH2 (wild type) [2] = biological target: T1, SHIP2-SH2 (wild type); settings: summary Figure 6F, value from the authors' earlier NMR/FP study, cited from earlier work
Source text: Figure 6 The binding interface and affinity of SHIP2-SH2 for different native ligands. The binding interface of SHIP2-SH2 for FcgR2B ITIM (A), CagA EPIYA-C/D (B), c-MET C-terminus (C), CagA EPIYA-A/B (D) is colored in blue. The additional interface of SHIP2-SH2 for 13-mer FcgR2B ITIM compared to 8-mer FcgR2B ITIM is colored in green. The interface was drawn according to the residues of SHIP2-SH2 showing a CSP greater than 0.2 ppm in NMR titration experiments with respective ligand. (E) The summarized three regions of SHIP2-SH2 which are differently engaged for binding different ligands are hig ...

SHIP2-SH2 = settings: 6-mer phosphopeptides (-2 to +3), both with Leu at pY+3; cited from earlier work
Source text: When the natural phosphopeptides interacting with SHIP2-SH2 were ranked according to their affinities to SHIP2-SH2, it was seen that the affinity was related to the residue type at the pY+3 position (Figure 6F). The ligands showing high and moderate affinities have Leu (L) or Ile (I) residues at this site, while ligands with a low affinity have Val (V) at this site. These indicate that SHIP2-SH2 may have a preference for the hydrophobic side chain of the residue at the pY+3 site of its Tyr-phosphorylated ligand.

Compound	Kd (SHIP2-SH2 (wild type) [1]; SEM)	Kd (SHIP2-SH2 R28A)	Kd (SHIP2-SH2 S49A)	Kd (SHIP2-SH2 E50A)	Kd (SHIP2-SH2 S51A)	Kd (SHIP2-SH2 R70A)	Kd (SHIP2-SH2 S84A)	Kd (SHIP2-SH2 Q107A)	also measured
CC[C@H](C)[C@H](NC(=O)[C@@H](NC(=O)[C@H](C)NC(=O)[C@H](Cc1ccc(OP(=O)(O)O)cc1)NC(=O)[C@@H](NC(=O)[C@@H]1CCCN1C(=O)[C@@H](N)CCC(=O)O)[C@@H](C)CC)[C@@H](C)O)C(=O)N[C@@H](CC(=O)O)C(=O)O [8-mer EPIYA-CD] (H-EPI[pY]ATID-OH)	–	–	–	–	–	–	–	–	Kd (SHIP2-SH2 (wild type) [1]): 4.45 µM
CC[C@H](C)[C@H](NC(=O)[C@@H]1CCCN1C(=O)[C@H](CCC(=O)O)NC(=O)[C@H](CC(N)=O)NC(=O)[C@@H](N)CCC(=O)O)C(=O)N[C@@H](Cc1ccc(OP(=O)(O)O)cc1)C(=O)N[C@@H](C)C(=O)N[C@@H](CCCCN)C(=O)N[C@H](C(=O)N[C@@H](CC(N)=O)C(=O)N[C@@H](CCCCN)C(=O)N[C@@H](CCCCN)C(=O)N[C@@H](CCCCN)C(=O)O)C(C)C [EPIYA-A] (H-ENEPI[pY]AKVNKKK-OH)	23.4 ± 1.03 µM	133 ± 6.95 µM	419 ± 18.6 µM	8.28 ± 0.67 µM	180 ± 37.4 µM	539 ± 24.2 µM	16.4 ± 0.47 µM	25.5 ± 1.5 µM	–
CC[C@H](C)[C@H](NC(=O)[C@@H]1CCCN1C(=O)[C@H](CCC(=O)O)NC(=O)[C@H](CCC(=O)O)NC(=O)[C@@H]1CCCN1)C(=O)N[C@@H](Cc1ccc(OP(=O)(O)O)cc1)C(=O)N[C@@H](C)C(=O)N[C@@H](CCC(N)=O)C(=O)N[C@H](C(=O)N[C@@H](C)C(=O)N[C@@H](CCCCN)C(=O)N[C@@H](CCCCN)C(=O)N[C@H](C(=O)O)C(C)C)C(C)C [EPIYA-B] (H-PEEPI[pY]AQVAKKV-OH)	18.6 ± 1.25 µM	143 ± 17.4 µM	303 ± 16.2 µM	6.6 ± 0.6 µM	171 ± 36 µM	532 ± 47.5 µM	17.9 ± 0.95 µM	21.4 ± 1.33 µM	–
CC[C@H](C)[C@H](NC(=O)[C@@H](NC(=O)[C@H](C)NC(=O)[C@H](Cc1ccc(OP(=O)(O)O)cc1)NC(=O)[C@@H](NC(=O)[C@@H]1CCCN1C(=O)[C@H](CCC(=O)O)NC(=O)[C@@H]1CCCN1C(=O)[C@@H](N)CO)[C@@H](C)CC)[C@@H](C)O)C(=O)N[C@@H](CC(=O)O)C(=O)N[C@@H](CC(=O)O)C(=O)N[C@@H](CC(C)C)C(=O)NCC(=O)O [EPIYA-C] (H-SPEPI[pY]ATIDDLG-OH)	2.96 ± 0.14 µM	12.9 ± 1.38 µM	77.5 ± 3.12 µM	0.96 ± 0.14 µM	22.4 ± 2.88 µM	119 ± 4.93 µM	2.79 ± 0.18 µM	2.78 ± 0.14 µM	–
CC[C@H](C)[C@H](NC(=O)[C@@H](NC(=O)[C@H](C)NC(=O)[C@H](Cc1ccc(OP(=O)(O)O)cc1)NC(=O)[C@@H](NC(=O)[C@@H]1CCCN1C(=O)[C@H](CCC(=O)O)NC(=O)[C@@H]1CCCN1C(=O)[C@@H](N)CO)[C@@H](C)CC)[C@@H](C)O)C(=O)N[C@@H](CC(=O)O)C(=O)N[C@@H](Cc1ccccc1)C(=O)N[C@@H](CC(=O)O)C(=O)N[C@@H](CCC(=O)O)C(=O)O [EPIYA-D]	3.16 ± 0.13 µM	15.5 ± 2.77 µM	76.8 ± 5.16 µM	1.14 ± 0.16 µM	24.6 ± 2.23 µM	116 ± 6.61 µM	2.69 ± 0.19 µM	3.46 ± 0.2 µM	–
FcgR2B: Tyr-phosphorylated FcgR2B-ITIM peptide from the authors' previous study (ENTITYSLLMHPD; not fully specified; phospho-Tyr292 (ITIM tyrosine); an 8-mer form (289-296, pY-3 to pY+4) was also used in the cited study)	–	–	–	–	–	–	–	–	Kd (SHIP2-SH2 (wild type) [2]; read-out: Binding Affinities KD for SHIP2-SH2 (FcgR2B ITIM phosphopeptide)): 0.4 µM
GGpYMTL [FcgR2A ITAM, 6-mer FcgR2A ITAM phosphopeptide (−2 to +3) of a previous SPR study]	–	–	–	–	–	–	–	–	KD for SHIP2-SH2 by SPR (comparison in words) (SHIP2-SH2): comparable KD values
ITpYSLL [6-mer FcgR2B ITIM, 6-mer FcgR2B ITIM phosphopeptide (-2 to +3) of a previous SPR study]	–	–	–	–	–	–	–	–	KD for SHIP2-SH2 by SPR (comparison in words) (SHIP2-SH2): comparable KD values
c-MET: Y1356-phosphorylated c-MET C-terminus peptide from the authors' previous study (NATYVNVK; not fully specified; phospho-Tyr1356)	–	–	–	–	–	–	–	–	Kd (SHIP2-SH2 (wild type) [2]; read-out: Binding Affinities KD for SHIP2-SH2 (c-MET phosphopeptide)): 7.43 µM
